The values that follow come from US7517890B2, “GTPase inhibitors and methods of use” (Children's Hospital Medical Center, priority 2003, dated 2009).

Experiment [1] deals with PC-3 cells. The experiment is described as follows: PC-3 cell growth (CellTiter 96 AQueous assay). The settings on record: 5% serum, indicated concentrations of compound.
Method: Cell growth assay. […] The growth rate of the prostate PC-3 cells is measured by the CellTiter 96 AQueous assay (Promega). 1,500 cells/well in 200 μl of 5% FBS medium are plated in 96-well plates and are grown under normal conditions. Cultures are assayed in 0, 1, 2, 3, 4, or 5 days by the addition of 20 μl of the combined MTS/PMS solution followed by incubation for one hour at 37° C. Absorbency is measured at a wavelength of 490 nm on an automated microplate reader.
The cells were split in triplicate in 96-wells at 1.5×10^3 cells per well. Cell numbers were assayed by using CellTiter 96 AQueous cell proliferation assay kit in different days.
The test system of experiment [2] is PC-3 cells. The experiment is described as follows: Anchorage independent growth of PC-3 cells in soft agar.
From the text: Anchorage independent growth.
The cells were split in triplicate in 96-wells at 1.5×10^3 cells per well.
The next experiment concerns Swiss 3T3 cells. Kind of experiment: Immunofluorescence of PDGF-stimulated lamellipodia formation (actin staining). Conditions: for PDGF induction of lamellipodia at the cell edges in the presence of compound: 100 μM compound, 10 nM PDGF.
Experiment [3] has as its system Tiam1-expressing NIH 3T3 cells. Kind of experiment: Transformation of GEF-expressing NIH 3T3 cells (foci, soft agar). It is filed as cell-based. Conditions: foci: 50 μM every two days, 14 days, soft agar: 100 μM.
The target in experiment [4] is PDZ-RhoGEF-stimulated mantGDP/GTP exchange of RhoA (Homo sapiens, UniProt P61586). The experiment is described as follows: In vitro guanine nucleotide exchange assay (mant-GDP), RhoA / PDZ-RhoGEF. It counts as biochemical. The settings on record: 200 μM compound. The protocol:
In vitro guanine nucleotide exchange assay. For these, 200 nM Rac1 loaded with mant-GDP is incubated at 25° C. in an exchange buffer containing 100 mM NaCl, 5 mM MgCl2, 50 mM Tris-HCl (pH 7.6), and 0.5 mM GTP in the absence or presence of 200 nM Trio. The mant-GDP fluorescence changes in the course of the exchange reactions are monitored with an excitation wavelength at 360 nm and the emission wavelength at 440 nm by a Cary Ellipse fluorescence spectrometer (Varian, Inc.).
In FIG. 3. […] In FIG. 3A, NSC23766 inhibited TrioN catalyzed GDP/GTP exchange of Rac1 in a dose dependent manner. 200 nM Rac1 loaded with mant-GDP was incubated at 25° C. in an exchange buffer containing 100 mM NaCl, 5 mM MgCk2, 50 mM Tris-HCl (PH 7.6), and 0.5 mM GTP in the absence (top line) or presence of 100 nM TrioN. Increasing concentrations of NSC23766 were included in the exchange buffer as indicated. In FIG. 3B, NSC23766 had no effect on the Intersectin-stimulated GDP/GTP exchange of Cdc42. 200 nM Cdc42 loaded with mant-GDP was incubated in the exchange buffer in the absence (top line) or presence of 100 nM Intersectin with or without 200 μM NSC23766. In FIG. 3C, the exchange reaction of RhoA catalyzed by PDZ-RhoGEF was carried out similarly in the presence or absence of 200 μM NSC23766.

A further experiment concerns the target endogenous RhoA (Mus musculus, UniProt Q9QUI0). Kind of experiment: Endogenous Rho GTPase activity assay (GST-Rhotekin pull-down), RhoA in NIH 3T3 cells. The settings on record: NIH 3T3 cells in 10% serum.
A further experiment concerns NIH 3T3 cells. Kind of experiment: Cell growth assay, wild type and RacL61- or GEF-transfected NIH 3T3 cells. It counts as cell-based. The settings on record: 5% serum, 100 μM compound.
The subject of experiment [5] is PC-3 cells. Kind of experiment: Matrigel cell invasion assay. The settings on record: 25 μM compound, 24 hrs.
Method: Cell invasion assays. The cell invasion assays are performed using 6.4-mm Biocoat Matrigel invasion chambers with 8.0-micron pore size PET membrane (Becton-Dickinson) according to the manufactory instructions. Briefly, 5×10^4 cells are resuspended in 0.5 ml of serum free culture medium and added to the upper chamber. 10% fetal bovine serum in the culture medium is used as a chemo-attractant in the lower chamber. After the cells are incubated for overnight, the number of cell passed through the Matrigel is counted.
Cells invaded through Matrigel matrix were visualized with Giemasa staining.
Experiment [6] has as its target T1, RhoA binding to PDZ-RhoGEF (Homo sapiens, UniProt P61586).
T1 construct: made in house; host or cells: Cos-7 (PDZ-RhoGEF, used as lysate)
The experiment is described as follows: Complex formation assay, RhoA with PDZ-RhoGEF. Conditions: varying concentrations of compound. The protocol: Trio and Tiam-1 co-precipitate with GST-Rac1, but not GST or GST-Cdc42.
In FIG. 2A, 0.5 μg of (His)6-tagged TrioN was incubated with GST alone or nucleotide-free, GST-fused Cdc42 or Rac1 (2 μg) in the binding buffer containing different concentrations of NSC23766 and 10 μl suspended glutathione-agarose. After an incubation at 4° C. for 30 minutes, the beads associated (His)6-TrioN were detected by anti-His Western blotting. The blots were quantified by densitometry analysis. The results are representative of three measurements. In FIG. 2B, myc-tagged Tiam1 expressed in Cos-7 cell lysates were incubated with (His)6-Rac1 in the presence of increasing concentrations of NSC23766. The association of Rac1 with Tiam1 was examined by anti-His blot after anti-myc immunoprecipitation. In FIG. 2C, the AU-tagged PDZ-RhoGEF was expressed in Cos-7 lysates and incubated with GST or GST-RhoA in the presence of varying concentrations of NSC23766. The RhoA associated PDZ-RhoGEF was probed with anti-AU antibody after affinity precipitation by glutathione agarose beads. In FIG. 2D, (His)6-Rac1 loaded with GTPγ S was incubated with GST-BcrGAP or GST-PAK1 (PBD) in the presence or absence of 200 μM NSC23766 and the interaction with GSTBcrGAP or GST-PAK1 was probed by anti-His blot after affinity precipitation by glutathione agarose beads.

PDZ-RhoGEF-stimulated mantGDP/GTP exchange of RhoA, sequence (P61586 whole entry): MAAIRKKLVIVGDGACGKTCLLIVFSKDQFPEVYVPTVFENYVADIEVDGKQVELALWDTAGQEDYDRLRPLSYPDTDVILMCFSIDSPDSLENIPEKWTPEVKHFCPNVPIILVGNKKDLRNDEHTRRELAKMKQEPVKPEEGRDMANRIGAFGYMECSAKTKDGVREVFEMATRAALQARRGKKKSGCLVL
T1 sequence (P61586 whole entry): as above
endogenous RhoA, sequence (Q9QUI0 whole entry): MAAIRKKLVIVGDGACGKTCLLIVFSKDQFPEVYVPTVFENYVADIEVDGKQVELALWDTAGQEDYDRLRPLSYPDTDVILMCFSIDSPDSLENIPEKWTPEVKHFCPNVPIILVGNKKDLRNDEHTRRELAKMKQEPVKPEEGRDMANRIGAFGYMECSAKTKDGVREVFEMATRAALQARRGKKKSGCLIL
Method for Swiss 3T3 cells: Immunofluorescence. […] The cellular actin is stained with TRITC-labeled phalloidin (Sigma) at 10 μg/ml in PBS for 40 min at room temperature. The actin and cell morphological changes are visualized by fluorescence microscopy.
The cells were fixed and stained with Rhodamine-labeled phalloidin.
Method for endogenous RhoA: Endogenous Rho GTPase activity assay. […] Cells are grown in log phase in a 10 cm dish, and are starved in 0.5% serum medium or indicated otherwise for 24 hrs prior to lysis in a buffer containing 20 mM Tris-HCl (pH 7.6), 100 mM NaCl, 10 mM MgCl2, 1% NP-40, 10% glycerol, and 1× proteases inhibitor cocktail (Roch). Lysates are clarified and the protein concentrations are normalized. The cell lysates containing equal amount of proteins are incubated with 10 μg GST- or His6-fusion probes for 40 min at 4° C. under constant rotation. The beads are washed twice with the lysis buffer, and the bound-Rho GTPases are detected by anti-Rac1 (Upstate), or anti-Cdc42 (BD Transduction Laboratories) Western blotting. Quantification of the Western blots is carried out using a LAS-1000 luminescent image analyzer (Fujifilm medical system, USA, Inc.).
Cell lysates containing similar amount of Rac1, Cdc42 or RhoA were incubated with the agarose immobilized GST-PAK1, GST-WASP or GST-Rhotekin, and the co-precipitates were subjected to anti-Rac1, Cdc42 or RhoA Western blot analysis to reveal the amount of GTP-Bound Rho proteins.

On to `CCN(CC)CCCC(C)Nc1nc(C)cc(Nc2ccc3nc(C)cc(N)c3c2)n1` (stereo not drawn) [compound 23766, N^6-(2-((4-(diethylamino)-1-methylbutyl)amino)-6-methyl-4-pyrimidinyl)-2-methyl-4,6-quinolinediamine], for which, in the experiment with PC-3 cells [1], the “proliferation rates of PC-3 cells” value is given as “inhibited by compound 23766 in a dose dependent manner”. For the same compound, the “size of colonies of treated cells versus untreated” value in the experiment on PC-3 cells [2] is “much smaller”. Also, the colony-forming activity remaining entry with PC-3 cells [2] (25 μM compound) was “Approximately 10%”; in the experiment with PC-3 cells [2] (50 μM compound) it was ~1%. For the same compound, the PDGF-stimulated lamellipodia formation entry in the experiment on Swiss 3T3 cells (50 μM compound, overnight serum starvation, 10 nM PDGF (FIG. 4C legend)) is “inhibited PDGF-stimulated lamellipodia formation”. In addition, the “PDGF induction of lamellipodia at the cell edges in the presence of compound” value in the experiment on Swiss 3T3 cells (5 min) was “only marginally effective”; in the experiment with Swiss 3T3 cells (10 min) it was “completely ineffective”. Besides, the “Rac GEF stimulated cell growth and transformation” value in experiment [3] is reported as “specifically inhibited”. The “effect on PDZ-RhoGEF-stimulated mantGDP/GTP exchange of RhoA” value in experiment [4] is listed as “little impact”. Also, the “level of RhoA-GTP in cells” value at endogenous RhoA is reported as “slightly increased level”. The “growth of wild type NIH 3T3 cells” value with NIH 3T3 cells is “slow the growth”. In addition, the “growth rate of Rac1L61 expressing NIH 3T3 cells” value in the experiment with NIH 3T3 cells is on record as “no effect”. Moreover, the “cell growth induced by the Rac specific GEF Trio” value with NIH 3T3 cells (GEF expressing NIH 3T3 cells) is on record as “capable of inhibiting”. Besides, in the experiment on PC-3 cells [5], the PC-3 cell invasion result is listed as “significantly inhibits”. Further, the “effect on RhoA binding to PDZ-RhoGEF” value in [6] was “does not interfere”.
